# Target: T1, Human NPY Y1 receptors (Homo sapiens, UniProt P25929)
# T1 construct: expressed in transfected cells; host or cells: CHO cells (membrane protein)
# T1 sequence (P25929 1-384): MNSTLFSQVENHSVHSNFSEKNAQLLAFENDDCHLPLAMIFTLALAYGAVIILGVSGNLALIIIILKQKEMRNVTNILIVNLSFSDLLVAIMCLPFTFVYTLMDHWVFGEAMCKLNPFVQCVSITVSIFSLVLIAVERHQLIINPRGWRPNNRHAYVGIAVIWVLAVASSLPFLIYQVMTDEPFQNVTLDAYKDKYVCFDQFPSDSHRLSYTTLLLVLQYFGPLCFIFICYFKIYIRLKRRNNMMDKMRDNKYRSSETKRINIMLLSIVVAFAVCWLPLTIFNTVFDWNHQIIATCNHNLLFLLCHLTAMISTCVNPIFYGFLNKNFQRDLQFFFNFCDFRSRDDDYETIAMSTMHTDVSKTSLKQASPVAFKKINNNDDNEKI
# Test: NPY Receptor Binding Assay
# Conditions: Procedure E compounds, rated A/B/C
# Experimental: NPY Receptor Binding Assay
# Human NPY Y1 receptors were expressed in CHO cells. Binding assays were performed in 50 mM HEPES, pH 7.2, 2.5 mM CaCl2, 1 mM MgCl2 and 0.1% BSA containing 5-10 μg of membrane protein and 0.1 nM […] in a total volume of 200 μl. Non-specific binding was determined in the presence of 1 μM NPY. The reaction mixtures were incubated for 90 minutes at room temperature then filtered through Millipore MAFC glass fiber filter plates which had been pre-soaked in 0.5% polyethleneimine. The filters were washed with phosphate-buffered saline, and radioactivity was measured in a Packard TopCount scintillation counter.
row,Structure (SMILES),Ki
1,Cc1ccc2nc(NCCc3ccc(/N=C4/N[C@H](C)CS4)cc3)sc2c1 [Example 95],< 1000 nM
2,CC[C@@H]1CS/C(=N\c2ccc(CCNc3nc4ccc(C)cc4s3)cc2)N1 [Example 96],< 1000 nM
3,Cc1ccc2nc(NCCc3ccc(/N=C4/N[C@@H](Cc5c[nH]cn5)CS4)cc3)sc2c1 [Example 97],1000 to 10000 nM
4,CC(C)C[C@@H]1CS/C(=N\c2ccc(CCNc3nc4ccc(Cl)cc4s3)cc2)N1 [Example 100],1000 to 10000 nM
5,CCC1CS/C(=N\c2ccc(CCNc3nc4ccc(Cl)cc4s3)cc2)N1 (stereo not shown) [Example 103],1000 to 10000 nM
6,CCCC1CS/C(=N\c2ccc(CCNc3nc4ccc(Cl)cc4s3)cc2)N1 (stereo not shown) [Example 105],< 1000 nM
7,CCCCC1CS/C(=N\c2ccc(CCNc3nc4ccc(Cl)cc4s3)cc2)N1 (stereo not shown) [Example 106],1000 to 10000 nM
8,CC(C)[C@H]1CS/C(=N\c2ccc(CCNc3nc4ccc(Cl)cc4s3)cc2)N1 [Example 107],1000 to 10000 nM
9,C[C@@H]1CS/C(=N\c2ccc(CCNc3nc4ccc(Cl)cc4s3)cc2)N1 [Example 109],1000 to 10000 nM
10,CC[C@@H]1CS/C(=N\c2ccc(CCNc3nc4ccc(Cl)cc4s3)cc2)N1 [Example 110],< 1000 nM
11,CCCCC1CS/C(=N\c2ccc(CCNc3nc4ccc(S(C)(=O)=O)cc4s3)cc2)N1 (stereo not shown) [Example 111],1000 to 10000 nM
12,C[C@@H]1CS/C(=N\c2ccc(CCNc3nc4ccc(S(C)(=O)=O)cc4s3)cc2)N1 [Example 114],1000 to 10000 nM
13,CC[C@@H]1CS/C(=N\c2ccc(CCNc3nc4ccc(S(C)(=O)=O)cc4s3)cc2)N1 [Example 115],1000 to 10000 nM
14,CS(=O)(=O)c1ccc2nc(NCCc3ccc(/N=C4/N[C@@H](Cc5c[nH]cn5)CS4)cc3)sc2c1 [Example 116],1000 to 10000 nM
15,CS(=O)(=O)c1ccc2nc(NCCc3ccc(/N=C4/NC5(CCCC5)CS4)cc3)sc2c1 [Example 117],1000 to 10000 nM
16,CC1(C)CS/C(=N\c2ccc(CCNc3nc4ccc(S(C)(=O)=O)cc4s3)cc2)N1 [Example 118],1000 to 10000 nM
17,CC(C)C[C@@H]1CS/C(=N\c2ccc(CCNc3nc4ccccc4s3)cc2)N1 [Example 134],< 1000 nM
18,CC[C@@H]1CS/C(=N\c2ccc(CCNc3nc4ccc(F)cc4s3)cc2)N1 [Example 167],< 1000 nM
19,Fc1ccc2nc(NCCc3ccc(/N=C4/NC5(CCCC5)CS4)cc3)sc2c1 [Example 169],< 1000 nM
20,CN1CCS/C1=N/c1cccc(CCNc2nc3ccccc3s2)c1 [Example 182],> 10000 nM
21,c1ccc(/N=C2\N[C@H]3c4ccccc4CC3S2)c(CCNc2nc3ccccc3s2)c1 (stereo partly shown) [Example 183],> 10000 nM

row,Structure (SMILES),Ki
1,c1cc(CCNc2nc3ccccc3s2)cc(/N=C2\N[C@H]3c4ccccc4CC3S2)c1 (stereo partly shown) [Example 184],> 10000 nM
2,C[C@@H]1N/C(=N\c2cccc(CCNc3nc4ccccc4s3)c2)SC1c1ccccc1 (stereo partly shown) [Example 185],< 1000 nM
3,c1ccc(C2CN/C(=N\c3cccc(CCNc4nc5ccccc5s4)c3)S2)cc1 (stereo not shown) [Example 186],> 10000 nM
4,CC1CN/C(=N\c2cccc(CCNc3nc4ccccc4s3)c2)S1 (stereo not shown) [Example 187],> 10000 nM
5,Cc1cccc2sc(NCCc3ccc(/N=C4/NCC(c5ccccc5)S4)cc3)nc12 (stereo not shown) [Example 188],> 10000 nM
6,CC1CN/C(=N/c2ccc(CCNc3nc4ccc(S(C)(=O)=O)cc4s3)cc2)S1 (stereo not shown) [Example 189],> 10000 nM
7,CC1CN/C(=N/c2ccc(CCNc3nc4cc(Cl)c(Cl)cc4s3)cc2)S1 (stereo not shown) [Example 190],> 10000 nM
8,C[C@@H]1N/C(=N/c2ccc(CCNc3nc4ccccc4s3)cc2)SC1c1ccccc1 (stereo partly shown) [Example 191],> 10000 nM
9,c1ccc(C2CN/C(=N/c3ccc(CCNc4nc5ccccc5s4)cc3)S2)cc1 (stereo not shown) [Example 192],> 10000 nM
10,CC1CN/C(=N/c2ccc(CCNc3nc4ccccc4s3)cc2)S1 (stereo not shown) [Example 193],> 10000 nM
11,O=[N+]([O-])c1ccc2nc(NCCc3ccc(/N=C4/N[C@H]5c6ccccc6CC5S4)cc3)sc2c1 (stereo partly shown) [Example 194],> 10000 nM
12,c1ccc([C@@H]2CSC(Nc3ccc(CCNc4nc5ccccc5s4)cc3)=N2)cc1 [Example 196],< 1000 nM
13,c1ccc(CCC2CCSC(Nc3ccc(CCNc4nc5ccccc5s4)cc3)=N2)cc1 (stereo not shown) [Example 197],< 1000 nM
14,Clc1cccc(C2CCSC(Nc3ccc(CCNc4nc5ccccc5s4)cc3)=N2)c1 (stereo not shown) [Example 198],< 1000 nM
15,Clc1ccccc1C1CCSC(Nc2ccc(CCNc3nc4ccccc4s3)cc2)=N1 (stereo not shown) [Example 199],< 1000 nM
16,CC1CCSC(Nc2ccc(CCNc3nc4ccccc4s3)cc2)=N1 (stereo not shown) [Example 200],< 1000 nM
17,c1ccc2sc(NCCc3ccc(NC4=NC(C5CCCCC5)CCS4)cc3)nc2c1 (stereo not shown) [Example 201],< 1000 nM
18,c1ccc2sc(NCCc3ccc(N=C4NCCCS4)cc3)nc2c1 [Example 202],< 1000 nM
19,COc1ccc2nc(NCCc3ccc(/N=C4/NC(c5ccccc5)CCS4)cc3)sc2c1 (stereo not shown) [Example 203],< 1000 nM
20,Cc1ccc2nc(NCCc3ccc(/N=C4/NC(c5ccccc5)CCS4)cc3)sc2c1 (stereo not shown) [Example 204],< 1000 nM
21,Cc1ccc2nc(NCCc3ccc(N=C4NCCCS4)cc3)sc2c1 [Example 205],< 1000 nM

row,Structure (SMILES),Ki
1,COc1cccc2sc(NCCc3ccc(/N=C4/NC(c5ccccc5)CCS4)cc3)nc12 (stereo not shown) [Example 206],> 10000 nM
2,COc1cccc2sc(NCCc3ccc(/N=C4/NCCCS4)cc3)nc12 [Example 207],> 10000 nM
3,Cc1cccc2sc(NCCc3ccc(/N=C4/NC(c5ccccc5)CCS4)cc3)nc12 (stereo not shown) [Example 208],> 10000 nM
4,Cc1cccc2sc(NCCc3ccc(/N=C4/NCCCS4)cc3)nc12 [Example 209],> 10000 nM
5,Fc1ccc2nc(NCCc3ccc(/N=C4/NC(c5ccccc5)CCS4)cc3)sc2c1 (stereo not shown) [Example 210],< 1000 nM
6,Fc1ccc2nc(NCCc3ccc(/N=C4/NCCCS4)cc3)sc2c1 [Example 211],< 1000 nM
7,Clc1ccc2nc(NCCc3ccc(/N=C4/NC(c5ccccc5)CCS4)cc3)sc2c1 (stereo not shown) [Example 212],< 1000 nM
8,Clc1ccc2nc(NCCc3ccc(NC4=NCCCS4)cc3)sc2c1 [Example 213],< 1000 nM
9,CCCC1CS/C(=N\c2ccc(CCNc3nc4ccc(OC)cc4s3)cc2)N1 (stereo not shown) [Example 214],< 1000 nM
10,CCCCC1CS/C(=N\c2ccc(CCNc3nc4ccc(OC)cc4s3)cc2)N1 (stereo not shown) [Example 215],< 1000 nM
11,COc1ccc2nc(NCCc3ccc(/N=C4/N[C@@H](C(C)C)CS4)cc3)sc2c1 [Example 216],1000 to 10000 nM
12,COc1ccc2nc(NCCc3ccc(/N=C4/N[C@@H](c5ccccc5)CS4)cc3)sc2c1 [Example 217],> 10000 nM
13,COc1ccc2nc(NCCc3ccc(/N=C4/N[C@H](C)CS4)cc3)sc2c1 [Example 218],1000 to 10000 nM
14,CC[C@@H]1CS/C(=N\c2ccc(CCNc3nc4ccc(OC)cc4s3)cc2)N1 [Example 219],1000 to 10000 nM
15,COc1ccc2nc(NCCc3ccc(/N=C4/NC5(CCCC5)CS4)cc3)sc2c1 [Example 220],1000 to 10000 nM
16,COc1ccc2nc(NCCc3ccc(/N=C4/NC(C)(C)CS4)cc3)sc2c1 [Example 221],1000 to 10000 nM
17,Cc1ccc2nc(NCCc3ccc(/N=C4\SC5Cc6ccccc6[C@@H]5N4C)cc3)sc2c1 (stereo partly shown) [Example 222],> 10000 nM
18,Cc1ccc2nc(NCCc3ccc(/N=C4\SC5CCC[C@H]5N4C)cc3)sc2c1 (stereo partly shown) [Example 223],> 10000 nM
19,Cc1ccc2nc(NCCc3ccc(/N=C4\SC5Cc6ccccc6[C@@H]5N4C4CC4)cc3)sc2c1 (stereo partly shown) [Example 224],> 10000 nM
